One assay has as its system STAT3. Description: Western blot of pSTAT3 and STAT3. The assay is classed as cell-based, human. Particulars: tofacitinib 1 μM, 24 hours; GBM12 and GBM6. As to the method: Mayo PDX cells were serum starved overnight. Following treatment for specific time, cells were harvested and lysed. The human glioblastoma tissues were ground in liquid nitrogen and then were lysed. […] TGFα antibody was from R&D system.
. . . […] A similar experiment was performed in GBM6 (FIG. 18F). […] The Western blot images are representative of three independent biological replicates. Actin served as loading control. Data are represented as mean±SEM from three independent experiments. *P<0.05, **P<0.01, ***P<0.001, unpaired two-tailed t-test.
On the technique in general: A western blot detects proteins with antibodies after separation by electrophoresis.

Assay [1] deals with orthotopic glioblastoma tumors (Mayo PDXs). Description: Orthotopic glioblastoma xenotransplant model treated with tofacitinib. It counts as in vivo, mice. Here is the method: 4 to 6 weeks old female athymic nude mice were purchased from Charles River Laboratories. Mayo PDXs were injected into the right corpus striatum of the brains of 6-8 week-old nude mice using a stereotactic frame. […] Kaplan-Maier survival curves were calculated using GraphPad Prism 7.0 software. Alzet Osmotic pumps were installed for brain delivery of EGF or vehicle in tumor bearing mice. To monitor the mice with orthotropic xenografts, MRI was performed at the Mouse MRI Core, Advanced Imaging Research Center, at UT Southwestern.
Knockdown efficiency of HB-EGF in GBM39 control shRNA (GBM39shCtrl) and HB-EGF shRNA (GBM39shHB-EGF_1, GBM39shHB-EGF_2) clones was confirmed by ELISA (FIG. 21I). […] The Western blot images are representative of three independent biological replicates. Actin served as loading control. Scale bars: […]. Data are represented as mean±SEM from three independent experiments. ***P<0.001, […], n.s. not significant, unpaired two-tailed t-test.

The test system of the next assay is betacellulin. Description: ELISA for BTC in supernatants. It counts as cell-based, human. Particulars: tofacitinib 1 μM, 72 hours; GBM12 and GBM6. Here is the method:
Similar experiments were performed in GBM6 (FIG. 20D). […] Similar experiments were performed in GBM6 (FIG. 20F). […] The Western blot images are representative of three independent biological replicates. Actin served as loading control. Data are represented as mean±SEM from three independent experiments. * P<0.05, **P<0.01, *[…], unpaired two-tailed t-test.
In general terms: ELISA stands for enzyme-linked immunosorbent assay.

A further assay has as its system glioma cells. Particulars: Ramnarain et al. 2006, cited from earlier work.
Another assay relates to DOCK7. Description: GEF activity of DOCK7 (Cdc42 G15A agarose pull down). The assay is classed as cell-based, human. Particulars: EGF, 24 hours; GBM12 and GBM6. Here is the method:
To measure GEF activity of DOCK7, cell lysates were incubated with 40 μl Cdc42 G15A agarose beads (ab211185, Abcam) at 4° C. for 1 hour. The agarose beads were then washed boiled and the supernatants were used to immunoblot with DOCK7 antibody to determine levels of active DOCK7.

The next assay relates to GBM12 and GBM6 cells. As to the kind of experiment: Scratch-wound assay. It counts as cell-based, human. Conditions: EGF 50 ng/ml, 24 hours. As to the method:
Cells were cultured in 6 well plate until they reached around 100% confluence. A scratch wound was produced on the monolayer using a sterile 200 ul pipette tip. The cell cultured with serum free DMEM containing EGF (50 ng/ml) or vehicle control. Images of wound were captured 0 and 24 hours after scratch generation.
Referring to FIG. 4A-D, an analysis of glioma cell migration by in vitro scratch assays is shown. […] Data are represented as mean±SEM from three independent experiments. ** P<0.01, unpaired two-tailed t-test.

A further assay deals with Mayo PDX cells. Description: Matrigel invasion assay. The assay is classed as cell-based, human. Conditions: low-dose EGF (5 ng/ml), 24 hours; GBM12 and GBM6.
Assay [2] relates to U251MG and U87MG cell lines. Description: Matrigel invasion assay in established GBM lines. Conditions: for cell invasion: EGF 50 ng/ml. It counts as cell-based, human. Here is the method: Invasion status of cells was tested with Matrigel Boyden chamber assays (Fisher). 1×10^5 cells were plated on BD BioCoat Matrigel invasion chambers. 24 hours after treatment with drugs, invaded cells were stained with the HEMA-3 kit (Fisher). Invaded cells were counted in 4-5 random fields.
Referring to FIG. 6A-E, EGF inhibits EGFR overexpression induced cell invasion. […] Tetracycline induced EGFR overexpression was confirmed by Western blotting (FIG. 6E). The Western blot images are representative of three independent biological replicates. Actin served as loading control. Data are represented as mean±SEM from three independent experiments. **P<0.01, ***P<0.001, n.s. not significant, unpaired two-tailed t-test.

The test system of a further assay is Met. Description: Western blot of pMet and total Met. Conditions: HGF 20 ng/ml; GBM12 and GBM6. It counts as cell-based, human. As to the method: Whole protein extracts from cells or tumor tissues were analyzed by western blot as previously described (Altieri et al. (2015) Surg. Technol. Int 27: 297-302). Mayo PDX cells were serum starved overnight. Following treatment for specific time, cells were harvested and lysed. The human glioblastoma tissues were ground in liquid nitrogen and then were lysed. EGFR (06-847) antibody was from Millipore. DOCK7 was from Proteintech (Rosemont, Ill.). pEGFR (2236), STAT3 (12640), pSTAT3 (9145), cdc42(4376), and RhoA (4695) antibodies were from Cell Signaling Technology (Danvers, Mass.). TGFα antibody was from R&D system. BIN3 (sc-514396) and (3-Actin (sc-47778) were from Santa Cruz Biotechnology (Dallas, Tex.).
Referring to FIG. 11A-E, HGF induces invasion in GBM12 and GBM6. […] Cells were seeded on Matrigel coated inserts for 24 hours in the absence or presence of HGF (20 ng/ml). A Western blot analysis of DOCK7 antibody immunoprecipitated extracts from GBM12 and GBM6 treated with HGF for 24 hours (20 ng/ml) is shown in FIG. 11C. A Western blot showing GTP-bound RhoA (RhoA-GTP) and total RhoA levels after HGF treatment for 24 hours in GBM12 and GBM6 is shown in FIG. 11D. A Western blot showing CDC42-GTP and total CDC42 levels after HGF treatment (20 ng/ml) for 24 hours in GBM12 and GBM6. The Western blot images are representative of three independent biological replicates. […]

[3] abbreviates: GBM12V tumors, tofacitinib 50 mg/kg, oral gavage.
The mark [4] stands for this setting: orthotopic GBM39 with HBEGF silenced, tofacitinib treated.

The values that follow come from patent US20230075368A1, “IDENTIFICATION OF AN EGFR-BIN3 PATHWAY THAT ACTIVELY SUPPRESSES INVASION AND REDUCES TUMOR SIZE IN GLIOBLASTOMA” (The United States Govemment as represented by the …, priority 2020, published 2023).

For `C[C@@H]1CCN(C(=O)CC#N)C[C@@H]1N(C)c1ncnc2[nH]ccc12` [tofacitinib], in the assay on STAT3, the “phosphorylation of STAT3” value is given as “blocks phosphorylation”. The survival benefit result in [1] (GBM12TGFα tumors, tofacitinib 50 mg/kg, oral gavage) is given as “no additional benefit”. Further, in assay [1] (setting [3]), the survival entry is “significant improvement in survival” and the “tumor invasion (H&E, SMI-31)” value is “decreased invasion”. In addition, the “infiltration of surrounding normal tissue” value in assay [1] (GBM12 or GBM6 orthotopic model, 40 mg/kg/day for 3 weeks) is on record as “do not infiltrate the surrounding normal tissue”. Also, the survival result in assay [1] (GBM12 or GBM6 orthotopic model, 40 mg/kg/day for 3 weeks, from one week after intracranial injection) was “prolong survival”. Further, the “responsiveness of orthotopic tumors” value in assay [1] (GBM39 with HBEGF silenced vs. controls) is “more responsive”. Further, in [1] (setting [4]), the survival entry is reported as “improved” and the tumor invasiveness entry is listed as “less invasive”. Further, the upregulation of betacellulin result with betacellulin is reported as “not found”.

Turning to “EGF: Recombinant human EGF (AF-100) from Peprotech; EGFR ligand”, the “BIN3 gene upregulation when EGF is added” value in the assay on glioma cells (EGFR overexpressing glioma cells) was 19.2 fold. The “EGR1 gene induction with ligand-activated EGFR signaling” value with glioma cells is recorded as 13.68 fold. For the same compound, the DOCK7 activity result in the assay with DOCK7 is “decreased activity”. The “migration (scratch wound closure)” value with GBM12 and GBM6 cells was “suppressing migration”. Further, the cell invasion result in the assay on Mayo PDX cells is on record as “suppressed invasion”; in assay [2] (EGFR overexpressed in U87MG and U251MG), “decreased invasion”; in assay [2] (U251MG and U87MG with low endogenous EGFR) it was “increased invasiveness”. In addition, the “invasion increased by inducible EGFRwt expression” value in assay [2] (tetracycline induced EGFR overexpressing U251MG cells, plus EGF) was “abolished”.

As to HGF: the ligand for Met, the Met phosphorylation entry in the assay on Met is “increased”.
